Test results as given in the NIST ThermoML archive (doi:10.1007/s10765-015-1927-y).

What was measured:
[1] = xn = mol fraction of the nth substance listed; conditions: 303.15 K, 101 kPa, Liquid; for speed of sound: Frequency=1 MHz
[2] = 303.15 K, 101 kPa, Liquid; for speed of sound: Frequency=1 MHz

CCOC(C)=O [ethyl acetate] + ClC=C(Cl)Cl
[1], x2 = 0
Conditions | mass density [kg/m3] | speed of sound [m/s] | viscosity [mPa·s]
– | 888.75 | 1126 | 0.424

CCOC(C)=O [ethyl acetate]
[2]
Conditions | mass density [kg/m3] | speed of sound [m/s] | viscosity [mPa·s]
– | 888.75 | 1126 | 0.424

ClC=C(Cl)Cl [trichloroethene] + CCOC(C)=O
[1]
Conditions | mass density [kg/m3] | speed of sound [m/s] | viscosity [mPa·s]
x1 = 0.1325 | 957.65 | 1105 | 0.451
x1 = 0.2099 | 998.68 | 1094 | 0.47
x1 = 0.3674 | 1083.99 | 1073 | 0.501
x1 = 0.4158 | 1110.76 | 1067 | 0.509
x1 = 0.5484 | 1185.16 | 1051 | 0.532
x1 = 0.6854 | 1263.95 | 1037 | 0.552
x1 = 0.8354 | 1352.1 | 1025 | 0.57
x1 = 0.8995 | 1390.34 | 1021 | 0.577
x1 = 1 | 1450.9 | 1016 | 0.589

CCCCOC(C)=O [butyl ethanoate]
[2]
Conditions | mass density [kg/m3] | speed of sound [m/s] | viscosity [mPa·s]
– | 871.07 | 1170 | 0.638

ClC=C(Cl)Cl [trichloroethene] + CCCCOC(C)=O
[1]
Conditions | mass density [kg/m3] | speed of sound [m/s] | viscosity [mPa·s]
x1 = 0.1739 | 944.38 | 1145 | 0.66
x1 = 0.25 | 979.14 | 1135 | 0.665
x1 = 0.3658 | 1035.81 | 1115 | 0.67
x1 = 0.4722 | 1092.05 | 1097 | 0.666
x1 = 0.5724 | 1149.11 | 1080 | 0.666
x1 = 0.6942 | 1224.71 | 1060 | 0.654
x1 = 0.7761 | 1279.91 | 1047 | 0.644
x1 = 0.9126 | 1380.34 | 1027 | 0.62
x1 = 1 | 1450.9 | 1016 | 0.589

CCCOC(C)=O [propyl ethanoate] + ClC=C(Cl)Cl
[1], x2 = 0
Conditions | mass density [kg/m3] | speed of sound [m/s] | viscosity [mPa·s]
– | 876.55 | 1148 | 0.547

CCCCOC(C)=O [butyl ethanoate] + ClC=C(Cl)Cl
[1], x2 = 0
Conditions | mass density [kg/m3] | speed of sound [m/s] | viscosity [mPa·s]
– | 871.07 | 1170 | 0.638

CCCOC(C)=O [propyl ethanoate]
[2]
Conditions | mass density [kg/m3] | speed of sound [m/s] | viscosity [mPa·s]
– | 876.55 | 1148 | 0.547

ClC=C(Cl)Cl [trichloroethene]
[2]
Conditions | mass density [kg/m3] | speed of sound [m/s] | viscosity [mPa·s]
– | 1450.9 | 1016 | 0.589

ClC=C(Cl)Cl [trichloroethene] + CCCOC(C)=O
[1]
Conditions | mass density [kg/m3] | speed of sound [m/s] | viscosity [mPa·s]
x1 = 0.1419 | 942.22 | 1126 | 0.567
x1 = 0.2337 | 987.22 | 1112 | 0.578
x1 = 0.364 | 1054.63 | 1094 | 0.592
x1 = 0.4555 | 1104.47 | 1081 | 0.601
x1 = 0.5827 | 1177.08 | 1063 | 0.61
x1 = 0.6735 | 1231.75 | 1050 | 0.614
x1 = 0.7713 | 1293.35 | 1038 | 0.612
x1 = 0.8922 | 1374.05 | 1025 | 0.604
x1 = 1 | 1450.9 | 1016 | 0.589
